Laboratory results: ChEMBL document CHEMBL5331051, “Cationic, amphipathic small molecules based on a triazine-piperazine-triazine scaffold as a new class of antimicrobial agents” (Eur J Med Chem, 2022)
Converted amounts (≈) assume the structure as drawn. The source made the active and inactive calls. The rule behind the calls is not given here.

Columns and labels:
Escherichia coli [1] = assay: Antibacterial activity against Escherichia coli KCTC 1682 strain assessed as bacterial growth inhibition measured after 6 hrs in presence of chymotrypsin by radial diffusion assay; format: functional, organism-based
Cell membrane [2] = assay: Induction of cell membrane depolarization in Staphylococcus aureus assessed as fluorescence intensity at 2 to 16 times MIC by DiSC3(5) dye based fluorescence assay; format: subcellular
Cell membrane [3] = assay: Induction of cell membrane depolarization in Staphylococcus aureus assessed as increase in fluorescence intensity at 2 times MIC by DiSC3(5) dye based fluorescence assay
Escherichia coli [4] = assay: Antibacterial activity against Escherichia coli KCTC 1682 strain assessed as bacterial growth inhibition measured after 6 hrs in presence of proteinase K by radial diffusion assay; format: functional, organism-based
Escherichia coli [5] = assay: Antibacterial activity against Escherichia coli KCTC 1682 strain assessed as bacterial growth inhibition measured after 6 hrs in presence of trypsin by radial diffusion assay; format: functional, organism-based
Enterococcus faecium = assay: Antibacterial activity against vancomycin-resistant Enterococcus faecium ATCC 51559 strain assessed as bacterial growth inhibition measured at 18 to 24 hrs by microdilution assay; format: functional; settings: time 18-24 hrs
Cell membrane [6] = assay: Induction of cell membrane damage in Escherichia coli KCTC 1682 assessed as increase in fluorescent intensity at 2 times MIC incubated for 30 mins by PI staining based flow cytometry assay (reference value: 9.79 %); format: subcellular
Escherichia coli [7] = assay: Antibacterial activity against Escherichia coli KCTC 1682 strain assessed as bacterial growth inhibition measured after 6 hrs in presence of pepsin by radial diffusion assay; format: functional, organism-based
Erythrocyte = assay: Hemolytic activity in sheep RBC assessed as minimal hemolytic concentration causing 10% hemolysis incubated for 1 hr by ELISA; format: toxicity, cell-based, Ovis aries
Cell membrane [8] = assay: Induction of cell membrane depolarization in Staphylococcus aureus assessed as increase in fluorescence intensity at 2 times MIC by SYTOX green staining based analysis
Cell membrane [9] = assay: Induction of outer membrane permeabilization in Escherichia coli KCTC 1682 assessed as increase in fluorescence intensity at 2 to 8 ug/ml by NPN staining based analysis; settings: dose 2-8 µg/ml
Cell membrane [10] = assay: Induction of inner membrane permeabilization in Escherichia coli ML-35 assessed as increase in […] at 2 times MIC by ONPG staining based analysis

For `CC[C@H](C)[C@H](NC(=O)CN)C(=O)NCC(=O)N[C@@H](C)C(=O)N[C@H](C(=O)N[C@@H](CC(C)C)C(=O)N[C@@H](CCCCN)C(=O)N[C@H](C(=O)N[C@@H](CC(C)C)C(=O)N[C@H](C(=O)N[C@H](C(=O)NCC(=O)N[C@@H](CC(C)C)C(=O)N1CCC[C@H]1C(=O)N[C@@H](C)C(=O)N[C@@H](CC(C)C)C(=O)N[C@H](C(=O)N[C@@H](CO)C(=O)N[C@@H](Cc1c[nH]c2ccccc12)C(=O)N[C@H](C(=O)N[C@@H](CCCCN)C(=O)N[C@@H](CCCNC(=N)N)C(=O)N[C@@H](CCCCN)C(=O)N[C@@H](CCCNC(=N)N)C(=O)N[C@@H](CCC(N)=O)C(=O)N[C@@H](CCC(N)=O)C(N)=O)[C@@H](C)CC)[C@@H](C)CC)[C@@H](C)O)[C@@H](C)O)C(C)C)C(C)C` [MELITTIN], the Activity (Escherichia coli [1]) was “inactive”, the Activity (Cell membrane [2]) was “inactive” and the Activity (Cell membrane [3]) was “Active”. For the same molecule, the Activity (Escherichia coli [4]) was “inactive”, the Activity (Escherichia coli [5]) was “inactive” and the MIC (Enterococcus faecium) was 5.6 µM (≈ 15.9 µg/mL). For the same molecule, the Flu intensity (Cell membrane [6]) was 64.2%, the Activity (Escherichia coli [7]) was “inactive” and the MHC (Erythrocyte) was 3.2 µM. For the same molecule, the Activity (Cell membrane [8]) was “Active”, the Activity (Cell membrane [9]) was “Active” and the Activity (Cell membrane [10]) was “Active”.
